Laboratory results from publication PMC7413254 (Nature Communications, 2020).
Where two headings read alike, the source gives them in different places.

What was measured:
PfCRT^Ecu1110 [1] = biological target: T1, PfCRT^Ecu1110 (Plasmodium falciparum, UniProt Q9N623, A220S/I356L/K76T/N326D); experiment: [3H]CQ uptake into Xenopus oocytes, cis-inhibition by unlabelled solute; type: cell-based; conditions: for Uptake of [3H]CQ (% PfCRTEcu1110 control), cis-inhibition / PfCRT-mediated [3H]CQ transport, cis-inhibition (% PfCRTEcu1110 control): PfCRTEcu1110 oocytes; for Uptake of [3H]CQ (% PfCRTEcu1110 control), cis-inhibition: total [3H]CQ transport, normalised to the oocyte type control; for PfCRT-mediated [3H]CQ transport, cis-inhibition (% PfCRTEcu1110 control): background [3H]CQ accumulation subtracted, normalised to oocyte type control; for [3H]CQ transport (% PfCRTEcu1110 control), cis-inhibition, PfCRTEcu1110: PfCRT-mediated component (background subtracted), sheet title says normalised to PfCRTDd2 control, mean ± SEM, SEM
T1 sequence (Q9N623 whole entry A220S/I356L/K76T/N326D): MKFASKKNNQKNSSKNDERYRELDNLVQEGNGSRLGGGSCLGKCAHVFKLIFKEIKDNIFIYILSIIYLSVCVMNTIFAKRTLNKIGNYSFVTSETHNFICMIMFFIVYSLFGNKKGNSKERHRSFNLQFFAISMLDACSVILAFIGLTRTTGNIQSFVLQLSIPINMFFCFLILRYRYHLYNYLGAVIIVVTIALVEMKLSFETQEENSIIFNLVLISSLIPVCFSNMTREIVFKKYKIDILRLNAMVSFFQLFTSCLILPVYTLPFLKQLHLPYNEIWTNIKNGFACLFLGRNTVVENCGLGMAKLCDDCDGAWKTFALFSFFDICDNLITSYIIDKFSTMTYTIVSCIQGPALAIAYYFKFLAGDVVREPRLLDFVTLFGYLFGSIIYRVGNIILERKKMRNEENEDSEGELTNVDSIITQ
How it was run: (§1)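 Assay buffer ND96 (10 mM MES, 10 mM Tris-base) held at pH 5.5 to mimic vacuole lumen; uptake measured inward from this acidic medium over 1.5 h at 27.5 °C.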

PfCRT^Dd2 [2] = biological target: T2, PfCRT^Dd2 (Plasmodium falciparum, UniProt Q9N623, A220S/I356T/K76T/M74I/N326S/N75E/Q271E/R371I); experiment: as above; type: cell-based; conditions: PfCRTDd2 oocytes, background [3H]CQ accumulation subtracted, normalised to oocyte type control
T2 sequence (Q9N623 whole entry A220S/I356T/K76T/M74I/N326S/N75E/Q271E/R371I): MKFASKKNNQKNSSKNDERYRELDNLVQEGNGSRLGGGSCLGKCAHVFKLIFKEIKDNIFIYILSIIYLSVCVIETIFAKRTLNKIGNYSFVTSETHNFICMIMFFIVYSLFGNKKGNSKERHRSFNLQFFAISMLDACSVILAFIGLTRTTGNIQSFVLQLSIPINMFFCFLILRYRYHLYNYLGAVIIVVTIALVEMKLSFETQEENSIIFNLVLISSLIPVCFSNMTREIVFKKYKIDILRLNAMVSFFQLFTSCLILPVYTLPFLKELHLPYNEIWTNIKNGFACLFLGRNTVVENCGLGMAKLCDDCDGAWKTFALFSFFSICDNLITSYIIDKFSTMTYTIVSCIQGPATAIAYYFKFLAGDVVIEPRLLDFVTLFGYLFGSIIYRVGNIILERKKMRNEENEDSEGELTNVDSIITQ
How it was run: as §1

non-expressing oocytes [3] = type: cell-based, Xenopus laevis; conditions: non-expressing oocytes, total [3H]CQ transport, normalised to the oocyte type control
How it was run: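 Oocytes (ten per treatment, ≥4 independent frogs/days) were preloaded by injecting VF-6 in 25 nL ND96 at pH 5.0, 5.5, 6.0 or 7.0, or Na^+-free choline buffer, then uptake run 1.5 h, 27.5 °C, ND96 pH 5.5 by default. Internal concentrations assumed ~400 nL oocyte volume.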

non-expressing oocytes [4] = experiment: cells; type: cell-based, Xenopus laevis; conditions: non-expressing oocytes, total [3H]CQ transport, normalised to the oocyte type control
How it was run: as §1

PfCRT^3D7 [5] = biological target: T3, PfCRT^3D7 (Plasmodium falciparum, UniProt Q8IBZ9); experiment: cell-based; type: cell-based; conditions: PfCRT3D7 oocytes, total [3H]CQ transport, normalised to the oocyte type control
T3 sequence (Q8IBZ9 59-398): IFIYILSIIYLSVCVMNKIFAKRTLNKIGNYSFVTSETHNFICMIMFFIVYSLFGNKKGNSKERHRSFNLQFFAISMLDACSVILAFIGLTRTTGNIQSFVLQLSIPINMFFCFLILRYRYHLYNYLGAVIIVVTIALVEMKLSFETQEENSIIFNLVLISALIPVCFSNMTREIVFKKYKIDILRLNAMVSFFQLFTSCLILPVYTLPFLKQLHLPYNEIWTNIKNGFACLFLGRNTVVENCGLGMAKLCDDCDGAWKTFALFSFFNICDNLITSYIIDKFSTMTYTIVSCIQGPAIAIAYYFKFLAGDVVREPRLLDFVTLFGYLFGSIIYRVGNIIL
How it was run: as §1

PfCRT^Ecu1110 [6] = biological target: T1, PfCRT^Ecu1110; experiment: cell-based; type: cell-based; conditions: for Uptake of [3H]CQ (% PfCRTEcu1110 control), trans-stimulation / PfCRT-mediated [3H]CQ transport, trans-stimulation (% PfCRTEcu1110 control): PfCRTEcu1110 oocytes; for Uptake of [3H]CQ (% PfCRTEcu1110 control), trans-stimulation: total [3H]CQ transport, normalised to the oocyte type control; for PfCRT-mediated [3H]CQ transport, trans-stimulation (% PfCRTEcu1110 control): normalised to oocyte type control; for [3H]CQ transport (% PfCRTDd2 control), trans-stimulation, PfCRTEcu1110: PfCRT-mediated component (background subtracted), sheet title says normalised to PfCRTDd2 control, mean ± SEM, SEM
How it was run: (§2)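 Transport measured in Xenopus oocytes expressing the transporters, 1.5 h at 27.5 °C in ND96 pH 5.5 unless noted. For trans-stimulation, VF-6 injected in 25 nL ND96 at pH 5.0–7.0 or Na^+-free (choline) buffer; intracellular levels based on ~400 nL oocyte volume. Ten oocytes per treatment, ≥4 experiments.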

PfCRT^3D7 [7] = biological target: T3, PfCRT^3D7; experiment: cell-based; type: cell-based; conditions: PfCRT3D7 oocytes; for Uptake of [3H]CQ (% PfCRT3D7 control), trans-stimulation: total [3H]CQ transport, normalised to the oocyte type control; for PfCRT-mediated [3H]CQ transport, trans-stimulation (% PfCRT3D7 control): normalised to oocyte type control
How it was run: as §2

PfNT1 = biological target: T4, PfNT1 (Plasmodium falciparum, UniProt Q8IDM6); experiment: cell-based; type: cell-based; conditions: PfNT1 oocytes, total [3H]CQ transport, normalised to the oocyte type control
T4 construct: expressed in transfected cells; host or cells: Xenopus laevis oocytes (stage V-VI), cRNA-injected
T4 sequence (Q8IDM6 whole entry): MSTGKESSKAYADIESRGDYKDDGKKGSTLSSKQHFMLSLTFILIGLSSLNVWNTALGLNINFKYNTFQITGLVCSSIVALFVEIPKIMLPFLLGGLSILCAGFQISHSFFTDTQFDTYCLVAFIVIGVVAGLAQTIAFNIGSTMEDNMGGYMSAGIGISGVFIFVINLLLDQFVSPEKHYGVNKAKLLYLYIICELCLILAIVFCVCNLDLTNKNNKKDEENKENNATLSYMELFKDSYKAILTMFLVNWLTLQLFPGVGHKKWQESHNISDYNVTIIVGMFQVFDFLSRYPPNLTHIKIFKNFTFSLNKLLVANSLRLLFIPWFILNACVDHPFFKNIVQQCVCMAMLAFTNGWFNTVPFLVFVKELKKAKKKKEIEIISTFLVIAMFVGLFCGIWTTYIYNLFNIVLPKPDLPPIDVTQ
How it was run: as §2

PfCRT^Dd2 [8] = biological target: T2, PfCRT^Dd2; experiment: cell-based; type: cell-based; conditions: for PfCRT-mediated [3H]CQ transport, trans-stimulation (% PfCRTDd2 control): normalised to oocyte type control; for [3H]CQ transport (% PfCRTDd2 control), trans-stimulation, PfCRTDd2: PfCRT-mediated component (background subtracted), mean ± SEM, SEM
How it was run: as §2

[9] = [test solute]i = 45 mM (30 mM for some solutes due to solubility)
[10] = [test solute]i = 5 mM (intracellular)
[11] = [test solute]i = 45 mM (intracellular; 30 mM for some solutes due to solubility)
[12] = [test solute]i = 5 mM (injected)

For GGYR [GR-4], the “Uptake of [3H]CQ (% PfCRTEcu1110 control), cis-inhibition” value (PfCRT^Ecu1110 [1]; [test solute] = 0.5 mM) was 78 ± 6.9 % PfCRTEcu1110 control, the “Uptake of [3H]CQ (% PfCRTEcu1110 control), cis-inhibition” value (PfCRT^Ecu1110 [1]; [test solute] = 1 mM) was 65 ± 7.1 % PfCRTEcu1110 control and the “Uptake of [3H]CQ (% PfCRTEcu1110 control), cis-inhibition” value (PfCRT^Ecu1110 [1]; [test solute] = 2 mM) was 53 ± 4.7 % PfCRTEcu1110 control. For the same substance, the “PfCRT-mediated [3H]CQ transport, cis-inhibition (% PfCRTEcu1110 control)” value (PfCRT^Ecu1110 [1]; [test solute] = 0.5 mM) was 71 ± 2.5 % PfCRTEcu1110 control, the “PfCRT-mediated [3H]CQ transport, cis-inhibition (% PfCRTEcu1110 control)” value (PfCRT^Ecu1110 [1]; [test solute] = 1 mM) was 59 ± 2.4 % PfCRTEcu1110 control and the “PfCRT-mediated [3H]CQ transport, cis-inhibition (% PfCRTEcu1110 control)” value (PfCRT^Ecu1110 [1]; [test solute] = 2 mM) was 48 ± 3.1 % PfCRTEcu1110 control. The “[3H]CQ transport (% PfCRTEcu1110 control), cis-inhibition, PfCRTEcu1110” value (PfCRT^Ecu1110 [1]; [test solute] = 1 mM) was 19 ± 0.1 % PfCRTEcu1110 control, the “[3H]CQ transport (% PfCRTEcu1110 control), cis-inhibition, PfCRTEcu1110” value (PfCRT^Ecu1110 [1]; [test solute] = 2 mM) was 15 ± 0.6 % PfCRTEcu1110 control and the “PfCRT-mediated [3H]CQ transport, cis-inhibition (% PfCRTDd2 control)” value (PfCRT^Dd2 [2]; [test solute] = 0.5 mM) was 71 ± 2.9 % PfCRTDd2 control. For the same substance, the “PfCRT-mediated [3H]CQ transport, cis-inhibition (% PfCRTDd2 control)” value (PfCRT^Dd2 [2]; [test solute] = 1 mM) was 58 ± 4.2 % PfCRTDd2 control, the “PfCRT-mediated [3H]CQ transport, cis-inhibition (% PfCRTDd2 control)” value (PfCRT^Dd2 [2]; [test solute] = 2 mM) was 40 ± 2.1 % PfCRTDd2 control and the “Uptake of [3H]CQ (% non-expressing oocyte control), trans-stimulation” value (non-expressing oocytes [3]; [test solute]i = 5 mM) was 100 ± 2.7 % non-expressing oocyte control. For the same substance, the “Uptake of [3H]CQ (% non-expressing oocyte control), trans-stimulation” value (non-expressing oocytes [3]; [9]) was 97 ± 2.5 % non-expressing oocyte control, the “Uptake of [3H]CQ (% non-expressing oocyte control), cis-inhibition” value (non-expressing oocytes [4]; [test solute] = 0.5 mM) was 99 ± 5.2 % non-expressing oocyte control and the “Uptake of [3H]CQ (% non-expressing oocyte control), cis-inhibition” value (non-expressing oocytes [4]; [test solute] = 2 mM) was 100 ± 3.6 % non-expressing oocyte control. For the same substance, the “Uptake of [3H]CQ (% PfCRT3D7 control), cis-inhibition” value (PfCRT^3D7 [5]; [test solute] = 0.5 mM) was 102 ± 4.3 % PfCRT3D7 control, the “Uptake of [3H]CQ (% PfCRT3D7 control), cis-inhibition” value (PfCRT^3D7 [5]; [test solute] = 1 mM) was 98 ± 4.8 % PfCRT3D7 control and the “Uptake of [3H]CQ (% PfCRT3D7 control), cis-inhibition” value (PfCRT^3D7 [5]; [test solute] = 2 mM) was 102 ± 5.8 % PfCRT3D7 control. For the same substance, the “Uptake of [3H]CQ (% PfCRTEcu1110 control), trans-stimulation” value (PfCRT^Ecu1110 [6]; [test solute]i = 5 mM) was 99 ± 3.2 % PfCRTEcu1110 control, the “Uptake of [3H]CQ (% PfCRTEcu1110 control), trans-stimulation” value (PfCRT^Ecu1110 [6]; [9]) was 100 ± 3.2 % PfCRTEcu1110 control and the “PfCRT-mediated [3H]CQ transport, trans-stimulation (% PfCRTEcu1110 control)” value (PfCRT^Ecu1110 [6]; [10]) was 97 ± 4.1 % PfCRTEcu1110 control. For the same substance, the “PfCRT-mediated [3H]CQ transport, trans-stimulation (% PfCRTEcu1110 control)” value (PfCRT^Ecu1110 [6]; [11]) was 98 ± 4.3 % PfCRTEcu1110 control, the “[3H]CQ transport (% PfCRTDd2 control), trans-stimulation, PfCRTEcu1110” value (PfCRT^Ecu1110 [6]; [12]) was 29 ± 1.5 % PfCRTEcu1110 control and the “[3H]CQ transport (% PfCRTDd2 control), trans-stimulation, PfCRTEcu1110” value (PfCRT^Ecu1110 [6]; [9]) was 30 ± 1.2 % PfCRTEcu1110 control. For the same substance, the “Uptake of [3H]CQ (% PfCRT3D7 control), trans-stimulation” value (PfCRT^3D7 [7]; [test solute]i = 5 mM) was 100 ± 2.6 % PfCRT3D7 control, the “Uptake of [3H]CQ (% PfCRT3D7 control), trans-stimulation” value (PfCRT^3D7 [7]; [9]) was 99 ± 2.6 % PfCRT3D7 control and the “PfCRT-mediated [3H]CQ transport, trans-stimulation (% PfCRT3D7 control)” value (PfCRT^3D7 [7]; [10]) was 98 ± 3.3 % PfCRT3D7 control. For the same substance, the “PfCRT-mediated [3H]CQ transport, trans-stimulation (% PfCRT3D7 control)” value (PfCRT^3D7 [7]; [11]) was 97 ± 4.2 % PfCRT3D7 control, the “Uptake of [3H]CQ (% PfNT1 control), trans-stimulation” value (PfNT1; [test solute]i = 5 mM) was 99 ± 3.2 % PfNT1 control and the “Uptake of [3H]CQ (% PfNT1 control), trans-stimulation” value (PfNT1; [9]) was 100 ± 3.7 % PfNT1 control. The “Uptake of [3H]CQ (% PfCRTDd2 control), trans-stimulation” value (PfCRT^Dd2 [8]; PfCRTDd2 oocytes, [test solute]i = 45 mM (30 mM for some solutes due to solubility), total [3H]CQ transport, normalised to the oocyte type control) was 103 ± 3.6 % PfCRTDd2 control, the “PfCRT-mediated [3H]CQ transport, trans-stimulation (% PfCRTDd2 control)” value (PfCRT^Dd2 [8]; [test solute]i = 5 mM (intracellular), PfCRTDd2 oocytes) was 99 ± 2.9 % PfCRTDd2 control and the “PfCRT-mediated [3H]CQ transport, trans-stimulation (% PfCRTDd2 control)” value (PfCRT^Dd2 [8]; [test solute]i = 45 mM (intracellular; 30 mM for some solutes due to solubility), PfCRTDd2 oocytes) was 100 ± 4.9 % PfCRTDd2 control. The “[3H]CQ transport (% PfCRTDd2 control), trans-stimulation, PfCRTDd2” value (PfCRT^Dd2 [8]; [12]) was 99 ± 2.9 % PfCRTDd2 control and the “[3H]CQ transport (% PfCRTDd2 control), trans-stimulation, PfCRTDd2” value (PfCRT^Dd2 [8]; [9]) was 100 ± 4.9 % PfCRTDd2 control.
